The text below walks through data of US20240127967A1.

Structures are written as SMILES. pIC50: −log10 of the molar value. Several values for one entry are separate records, joined by “and”; a condition that tells them apart may be missing. Identical values can stand only once. Entries after “also recorded” stand apart in the source; their conditions may differ. Like-named read-outs stand apart in the source and are kept apart here.

Series [1] concerns EBOV/Mak. Conditions: cited from earlier work.
The conditions of series [2]: in vivo, cited from earlier work.
Series [3] has as its system EBOV. Conditions: mouse, in vivo; cited from earlier work.
Series [4] has as its system EBOV/Mak. Briefly: microbe, parasite or virus in culture. Type of series: cell-based, Ebola virus. Conditions: for pIC50: Zaire ebolavirus.
Series [5] concerns VSV-EBOV-GPΔ-Luc. The class given is cell-based, VSV pseudovirus bearing EBOV GP.
Series [6] can be described thus: Pharmacokinetic modeling of human oral PK data (Monolix). Also noted: species or system humans. Particulars: for V: fitted PK model parameter (volume of plasma/serum compartment); for k: fitted elimination rate.
Series [7] relates to Ebola virus.
Series [8] in a line: State of V8 preparations after storage at 4° C. Type of series: physicochemical. Conditions: stored at 4° C.
For series [9] the following is noted: female, C57BL/6, mouse, in vivo; for Cmax: po.
For series [10], the system named is EBOV. Particulars: read-out: IC50 (HepG2); cited from earlier work.
Series [11] deals with MARV. Particulars: mouse, in vivo; cited from earlier work.
A short description of series [12]: in vivo. Particulars: mouse, ip, 12 mg/kg.
Series [13] is described as follows: Solubility in ten test vehicles. Conditions: for solubility in Vehicle #9: 3% NMP/45% PEG300/12% ethanol/40% sterile water; for solubility in Vehicle #9 / solubility in Vehicle #7 / solubility in Vehicle #6 / solubility in Vehicle #10 / solubility in Vehicle #8 / solubility in Vehicle #5 / solubility in Vehicle #4 / solubility in Vehicle #3: Bepridil 25, Sertraline 3, toremifene 8.4 mg/ml; for solubility in Vehicle #7: 5% NMP/95% PEG 300; for solubility in Vehicle #6: 10% Solutol/90% PEG 400; for solubility in Vehicle #2: 20% Captisol in water; for solubility in Vehicle #2 / solubility in Vehicle #1: Bepridil 25 mg/ml, Sertraline 3 mg/ml, toremifene 8.4 mg/ml; for solubility in Vehicle #10: 40% Propylene Glycol/30% Solutol HS 15/30% Sterile Water; for solubility in Vehicle #8: 80% PEG 400/20% of 0.1% Tween-20 in Water; for solubility in Vehicle #1: Aqueous Suspension Vehicle; for solubility in Vehicle #5: PEG 400; for solubility in Vehicle #4: Vegetable Oil; for solubility in Vehicle #3: […] PEG 400/[…] Tween 20/25% Capmul MCM NF.

Series [14] is described as follows: Tolerability of drugs in V8 in mice. Conditions: in V8, once daily PO, eleven consecutive days; bepridil 500, toremifene 200, sertraline 60 and 100 mg/kg.
Series [15] deals with EBOV/Mak-005. Conditions: rhesus monkey, in vivo; cited from earlier work.
For series [16], the system named is EBOV. Set-up: species or system mice. Conditions: mouse, in vivo.
In series [17] the test system is SARS-CoV-2.
Where [18] appears, read: Huh-7, read-out: IC50 (average).

Broadly, the pIC50 is the IC50 on a negative log10 scale, so that one unit is a factor of ten. In general, Cmax refers to the peak of the concentration-time curve. For `Cc1cccc(/C=N/Nc2cc(N3CCOCC3)nc(OCCc3ccccn3)n2)c1` [Apilimod], in [1] (read-out: IC50 (Huh7)), the pIC50 is 6.77. In addition, in series [2] (human, po), the Cmax was 260 nM.

`O=C1CCc2ccc(OCCCCN3CCN(c4cccc(Cl)c4Cl)CC3)cc2N1` [Aripiprazole]: in series [3], the “Survival (%)” value is on record as 10 ^1%; the “adverse effect in treated infected mice” value is “^1 Mice became extremely somnolent, thwarting eating and drinking, which likely contributed to low survival”.

Consider `CC[C@H]1OC(=O)[C@H](C)[C@@H](O[C@H]2C[C@@](C)(OC)[C@@H](O)[C@H](C)O2)[C@H](C)[C@@H](O[C@@H]2O[C@H](C)C[C@H](N(C)C)[C@H]2O)[C@](C)(O)C[C@@H](C)CN(C)[C@H](C)[C@@H](O)[C@]1(C)O` [Azithromycin], for which the pIC50 in series [1] (read-out: IC50 (Huh7)) was 4.97. Also, in [3], the “Survival (%)” value is reported as 10, 30, 60 ^2%.

What is called Hill coefficient is the slope factor of the fitted curve. Turning to `CC(C)COCC(CN(Cc1ccccc1)c1ccccc1)N1CCCC1` (stereo not shown) [Bepridil], the “possible loss of potency on storage in V8” value in series [4] is on record as < 2 fold. The compound further had a pIC50 in series [4] (Huh-7) of 5.35. Also, in [4] (setting [18]), the negative logarithm of the IC50 (pIC50) was 5.34. In addition, the “stability of inhibitory activity of stock in V8” value in series [5] is on record as “maintained inhibitory activity over 15 days”. Also, in series [6] (fitted PK model parameter), the Tk0 worked out at 0.0873 days, the k12 came out at 6.71 per day and the k21 was 1.61 per day. In series [6], this compound came in with a V of 25.2 and a k of 0.348 per day. Besides, the single drug effect result in series [7] was “exceeds 80%”. Further, in series [8], the “state of preparation in Vehicle 8 when removed from the refrigerator” value (shortened to “state of preparation”) is “always solid (as if it had frozen) and contained precipitate”. The Hill coefficient in [1] was 4.859. Further, in [1] (read-out: IC50 (Huh7)), the negative-log IC50 (pIC50) is 5.23. In addition, the pIC50 in series [1] (read-out: IC50) is 5.23. Also, in series [9], the “Cmax obtained relative to prediction, fold higher” value is given as ~1.8 fold and the Cmax is ~3000 nM. In [10], the pIC50 is 5.49. Further, the “Survival (%)” value in series [11] was 90 ^4%. This compound had a Cmax in [12] of 3300 nM. In series [3], the “Survival (%)” value was 100% and 100 ^3%. Further, in series [2], the peak concentration is recorded as 3.63 (±1.48) μM and the trough concentration is reported as 2.60 (±1.21) μM. Also, in [13], the “solubility in Vehicle #9” value is on record as “Clear solution”, the “solubility in Vehicle #7” value is given as “Clear solution”, the “solubility in Vehicle #6” value is listed as “Clear solution” and the “solubility in Vehicle #2” value is reported as “Slightly hazy”. Also, in series [13], the “solubility in Vehicle #10” value is reported as “Clear solution”, the “solubility in Vehicle #8” value was “Clear solution”, the “solubility in Vehicle #1” value is recorded as “Suspension” and the “solubility in Vehicle #5” value is “Clear solution”. In series [13], the “solubility in Vehicle #4” value is “Clear solution” and the “solubility in Vehicle #3” value is given as “Clear solution”. Besides, the tolerability in mice result in series [14] is listed as “well tolerated”.

`CN[C@H]1CC[C@@H](c2ccc(Cl)c(Cl)c2)c2ccccc21` [Sertraline] came in with a Tlag in [6] (fitted PK model parameter) of 0.0976 days. This compound also displayed a V in series [6] of 909. The “state of preparation” value in [8] is “no precipitates, not solid”. The Hill coefficient in [1] is reported as 1.628. Further, in [9], the “Cmax obtained relative to prediction, fold higher” value was ~1.2 fold and the Cmax was ~1200 nM. Also, the efficacy in macaques result in [15] is on record as “not effective; also recorded: did not protect”. For the same compound, the “Survival (%)” value in series [3] was 70% and 70 ^ %. For the same compound, in series [13], the “solubility in Vehicle #9” value is listed as “Clear solution”, the “solubility in Vehicle #7” value is on record as “Clear solution”, the “solubility in Vehicle #6” value was “Clear solution” and the “solubility in Vehicle #2” value is “Clear solution”. Also, in series [13], the “solubility in Vehicle #10” value is listed as “Clear solution”, the “solubility in Vehicle #8” value is listed as “Clear solution”, the “solubility in Vehicle #1” value is given as “Suspension” and the “solubility in Vehicle #5” value is reported as “Clear solution”. Further, in [13], the “solubility in Vehicle #4” value was “Clear solution” and the “solubility in Vehicle #3” value is “Clear solution”. In [14], the tolerability in mice entry was “well tolerated”.

On to `CN(C)CCOc1ccc(/C(=C(/CCCl)c2ccccc2)c2ccccc2)cc1` [Toremifene], for which the negative logarithm of the IC50 (pIC50) in series [4] (setting [18]) was 5.74. Further, the “stability of inhibitory activity of stock in V8” value in series [5] is recorded as “began to lose activity after about 1 week”. Moreover, in series [16], the “approximated protection of infected mice” value was ~50% and the reasoned survival is ~7%. In addition, the estimated survival in series [16] (po, 200 mg/kg) is listed as ~50%. In addition, in series [6] (fitted PK model parameter), the k12 is listed as 4.28 per day and the k21 is listed as 0.992 per day. In [6], the V was found to be 354 and the k turned out to be 0.000198 per day. The same compound had a ka in [6] (fitted absorption rate) of 16.6 per day. In addition, in [8], the “state of preparation” value is reported as “no precipitates, not solid”. In addition, the Hill coefficient in [1] is reported as 3.057. Moreover, the pIC50 in series [1] (read-out: IC50 (Huh7)) was 5.44. Further, the pIC50 in series [1] (read-out: IC50) was 5.44. For the same compound, in series [9], the “Cmax obtained relative to prediction, fold lower” value was ~1.4 fold and the Cmax was ~4400 nM. Further, the negative-log IC50 (pIC50) in series [10] was 7.52. The “Survival (%)” value in [3] is 50% and 50 ^ %. For the same compound, in series [2], the peak concentration was 1.18 (±0.42) μM and the trough concentration is 0.29 µM. Further, in [13], the “solubility in Vehicle #9” value is “Clear solution”, the “solubility in Vehicle #7” value is “Clear solution”, the “solubility in Vehicle #6” value is “Suspension” and the “solubility in Vehicle #2” value is “Clear solution”. Further, in series [13], the “solubility in Vehicle #10” value is given as “Insoluble”, the “solubility in Vehicle #8” value is recorded as “Clear solution”, the “solubility in Vehicle #1” value is on record as “Suspension” and the “solubility in Vehicle #5” value is given as “Suspension”. In addition, in series [13], the “solubility in Vehicle #4” value is reported as “Non-” and the “solubility in Vehicle #3” value was “Suspension”. For the same compound, in series [14], the tolerability in mice entry was “well tolerated”.

In the case of `CCOC(=O)c1c(CSc2ccccc2)n(C)c2cc(Br)c(O)c(CN(C)C)c12` [arbidol], in series [17], the baseline efficacy was 36%. Besides, in series [2], the peak concentration is 0.77 (±0.23) μM and the trough concentration is reported as 0.32 (±0.09) μM.

On to `CC(=O)c1ccc2c(c1)N(CCCN1CCC(CCO)CC1)c1ccccc1S2` [piperacetazine, Piperacetazine], for which the pIC50 in series [1] (read-out: IC50 (Huh7)) is 5.12; in [10] it was 5.48.

Regarding `CCC(CC)COC(=O)[C@H](C)N[P@](=O)(OC[C@H]1O[C@@](C#N)(c2ccc3c(N)ncnn23)[C@H](O)[C@@H]1O)Oc1ccccc1` [remdesivir], the baseline efficacy in series [17] was determined as 60%. In [2], the “median t1/2” value is reported as “≈ 1 hour”, the peak concentration is recorded as 5.34 (±0.03) μM and the “time of peak concentration” value is given as 1.03 (±0.01) hour.

For the compound `O=C(Nc1ncc([N+](=O)[O-])s1)c1ccccc1O` [tizoxanide], in [2], the peak concentration is 17.34 (±13.61) and the trough concentration is listed as 3.02 (±7.43).
